From patent EP0054589B1, “Organic phosphoric acid ester derivatives, a process for preparing the same and insecticidal, miticidal or nematocidal compositions containing the same” (priority 1980, dated 1982)
Where two headings read alike, the source gives them in different places.

Assays:
tobacco cutworm [1] = experiment: Insecticidal effect on tobacco cutworm (cabbage leaf dip); format: in vivo, Prodenia litura; conditions: after 48 hours, 25°C
Method in brief: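 Cabbage leaves dipped in water-diluted emulsifiable concentrate (two formulations, tests A and B) and air-dried were fed to 3rd-instar tobacco cutworm larvae at 25°C. Percent mortality scored after 48 hours; 3 replicates of 30 insects per compound.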

apple leaf miner = experiment: Insecticidal effect on apple leaf miner (sprayed apple seedling); format: in vivo, Lithocolletis ringoniella; conditions: Phyllonorycter ringoniella, 336 h, 500 ppm, fourteen days after spraying
Method in brief: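 Wettable-powder suspensions were sprayed onto potted apple seedlings infested with newly hatched leaf miner larvae, then kept in a greenhouse.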

tobacco cutworm [2] = experiment: Long-lasting insecticidal effect on tobacco cutworm (sprayed cabbage plantlet); format: in vivo, Prodenia litura; conditions: concentration 500 (unit not given), mortality after 48 hours; for Percent Mortality After Application 3rd Day: leaves cut on 3rd day; for Percent Mortality After Application 5th Day: leaves cut on 5th day; for Percent Mortality After Application 7th Day: leaves cut on 7th day; for Percent Mortality After Application 10th Day: leaves cut on 10th day; for Percent Mortality After Application 15th Day: leaves cut on 15th day
Method in brief: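 Cabbage plantlets sprayed with water-diluted emulsifiable concentrate and held in a greenhouse; leaves cut on days 3, 5, 7, 10 and 15 and fed to 3rd-instar larvae at 25°C. Percent mortality scored after 48 h; 3 replicates, 30 insects each.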

carmine mites = experiment: Miticidal effect on carmine mite (sprayed kidney bean seedling); format: in vivo, Tetranychus cinnabarius; conditions: 500 ppm
Method: An emulsifiable concentrate prepared as described in Formulation Example 1 and diluted to a predetermined concentration was sprayed using a spray-gun on a seedling of a kidney bean placed in a pot of 12 cm in diameter to which plant carmine mites were parasitic. After drying in air, seedlings were kept in a green house, and the number of living insects was recorded on the 7th, 14th, 21st and 28th day from the day of application to determine the control effects. Three pots were used for each treatment. The control effect was assessed by the following formula: [formula] • wherein Σ indicates sum and Cb, Tb, Cai and Tai have the following meanings. • Cb: Number of living mites in non-treated sample before application. • Tb: Number of living mites in treated sample before application. • Cai: Number of living mites in non-treated sample 7th, 14th, 21 st or 28th day from the application. • Tai: Number of living mites in treated sample 7th, 14th, 21st or 28th day from the application.

[3] = tested on: carmine mites resistant to Kelthane; experiment: Miticidal effect on carmine mite resistant to Kelthane (sprayed egg plant seedling); format: in vivo, Tetranychus cinnabarius; conditions: 500 ppm; for Number of Living Mites after Application 7th Day / Number of Living Mites after Application 14th Day / Number of Living Mites after Application 21st Day / Number of Living Mites after Application 28th Day: egg plant seedling; for Control Effect (%): from mite counts on 7th, 14th, 21st and 28th day
Method: (§1) (A) An emulsifiable concentrate prepared as described in Formulation Example 1 and diluted to a predetermined concentration was sprayed using a spray-gun on a seedling of an egg plant placed in a pot of 12 cm in diametre to which plant carmine mites resistant to Kelthane were parasitic. After drying in air, seedlings were kept in a green house, and the number of living insects was recorded on the 7th, 14th, 21 st and 28th day from the day of application to determine the control effects. Three pots were used for each treatment. The control effect was assessed by the formula described in TEST EXAMPLE 7 above. Further, phytotoxicity was observed visually on the 7th day after the application.
as §1, with “(B) An” for “(A) An”, “Example 3” for “Example 1”, “in diameter” for “in diametre”, “in Test” for “in TEST”

[4] = Table 3, 500 ppm, emulsifiable concentrate as Formulation Example 1
[5] = Table 10, wettable powder as Formulation Example 5, read-out: Percent Morality (%)
[6] = Table 13, Formulation Example 1
[7] = Table 14, Formulation Example 3

| Structure (SMILES) | Percent Mortality (%) (tobacco cutworm [1]; [4]) | mortality at 500 ppm (apple leaf miner; [5]) [%] | Percent Mortality After Application 3rd Day (tobacco cutworm [2]; Table 5) [%] | Percent Mortality After Application 5th Day (tobacco cutworm [2]; Table 5) [%] | Percent Mortality After Application 7th Day (tobacco cutworm [2]; Table 5) [%] | Percent Mortality After Application 10th Day (tobacco cutworm [2]; Table 5) [%] | Percent Mortality After Application 15th Day (tobacco cutworm [2]; Table 5) [%] | Control Effect (%) (carmine mites) | Number of Living Mites after Application 7th Day (carmine mites) | Number of Living Mites after Application 14th Day (carmine mites) | Number of Living Mites after Application 21st Day (carmine mites) | Number of Living Mites after Application 28th Day (carmine mites) | Number of Living Mites after Application 7th Day [3, 6] | Number of Living Mites after Application 14th Day [3, 6] | Number of Living Mites after Application 21st Day [3, 6] | Number of Living Mites after Application 28th Day [3, 6] | Control Effect (%) ([3]; Table 13) | other results |
| --- | --- | --- | --- | --- | --- | --- | --- | --- | --- | --- | --- | --- | --- | --- | --- | --- | --- | --- |
| CCCSP(=O)(OC)Oc1ccc2c(c1)OC(C)=CC2(C)C (stereo not shown) [Compound No. 1] | 100 | 100 | 100 | 100 | 100 | 100 | 100 | 99.6 | 0 | 0 | 0 | 3 | 0 | 0 | 5 | 11 | 99.0 | – |
| CCCSP(=O)(OCC)Oc1ccc2c(c1)OC(C)=CC2(C)C (stereo not shown) [Compound No. 2, O-ethyl-S-propyl-O-(2,4,4-trimethyl-1,4-benzopyran-7-yl)phosphorothioate] | 100 | 100 | 100 | 100 | 100 | 100 | 100 | 99.0 | 0 | 0 | 0 | 11 | 0 | 0 | 7 | 10 | 99.1 | – |
| CCCSP(=S)(OC)Oc1ccc2c(c1)OC(C)=CC2(C)C (stereo not shown) [Compound No. 9, 0-methyl-S-propyl-(2,4,4-trimethyl-1,4-benzopyran-7-yl)phosphorodithioate] | 100 | 100 | 100 | 100 | 100 | 100 | 93.3 | 99.0 | 0 | 0 | 0 | 8 | 0 | 0 | 0 | 0 | 100 | – |
| CCCSP(=S)(OCC)Oc1ccc2c(c1)OC(C)=CC2(C)C (stereo not shown) [Compound No. 10] | 100 | 100 | 100 | 100 | 100 | 100 | 96.7 | 97.6 | 0 | 0 | 2 | 19 | 0 | 0 | 4 | 16 | 99.0 | Number of Living Mites after Application 7th Day [3, 7]: 0; Number of Living Mites after Application 14th Day [3, 7]: 0; Number of Living Mites after Application 21st Day [3, 7]: 0; Number of Living Mites after Application 28th Day [3, 7]: 12; Control Effect (%) ([3]; Table 14): 98.7% |
| CCCSP(=O)(OCC)Oc1ccc2c(c1)OC(C)(C)C=C2C (stereo not shown) [Compound No. 20, O-ethyl-S-propyl-0-(2,2,4-trimethyl-1,2-benzopyran-7-yl)phosphorothioate] | 100 | 100 | 100 | 100 | 100 | 100 | 33.3 | – | – | – | – | – | – | – | – | – | – | Percent Mortality (%) (tobacco cutworm [1]; Table 4, 100 ppm, emulsifiable concentrate as Formulation Example 3): 100%; mortality at 500 ppm (apple leaf miner; Table 11, wettable powder as Formulation Example 7, read-out: Percent Mortality (%)): 96.6%; Percent Mortality After Application 3rd Day (tobacco cutworm [2]; Table 6): 100%; Percent Mortality After Application 5th Day (tobacco cutworm [2]; Table 6): 100%; Percent Mortality After Application 7th Day (tobacco cutworm [2]; Table 6): 100%; Percent Mortality After Application 10th Day (tobacco cutworm [2]; Table 6): 90.0%; Percent Mortality After Application 15th Day (tobacco cutworm [2]; Table 6): 46.7%; Percent Mortality After Application Immediately after Application (tobacco cutworm [2]; Table 6): 100% |
